Laboratory results published in patent US20140364422A1, “Aqueous Pharmaceutical Composition With Enhanced Stability” (NOVARTIS AG, priority 2012, published 2014).

What was measured:
[1] = test system: late phase allergy symptoms; experiment: Efficacy of olopatadine aqueous ophthalmic solutions in reducing late phase allergy symptoms; assay type: in vivo
Excerpt: Olopatadine is a known compound that can be obtained by the methods disclosed in U.S. Pat. No. 5,116,863, the entire contents of which are hereby incorporated by reference in the present specification for all purposes. Olopatadine is an antihistamine (as well as anticholinergic) and mast cell stabilizer. Olopatadine is a selective histamine H1 antagonist. When included, the composition of the present invention contains at least 0.1%, more typically at least 0.33% or 0.55%, even more typically at least 0.65% or 0.67%, still more typically at least 0.7%, but typically no greater than 1.5% more typically no greater than 1.0%, still more typically no greater than 0.8%, possibly no greater than 0.75% and even possibly no greater than 0.72% or 0.6% of olopatadine where concentrations of olopatadine typically represent concentrations of olopatadine in free base form if the olopatadine is added to the composition as a salt. […] Advantageously, for the composition of the present invention, lower concentrations (e.g., at least 0.50 w/v %, at least 0.55 w/v %, or at least 0.60 w/v %) may show significant improvements and even possibly statistically significant improvements in reducing late phase allergy symptoms.

[2] = Solubility/clarity and freeze-thaw of 0.5% and 1.0% olopatadine in native guar with HPCD (Table 5-1); assay type: physicochemical; settings: physiologic pH of 7; for Olopatadine solubility: 0.17% native guar
Description: (§1) Various concentrations of HPCD were used in the formulations. The formulations were filled in glass scintillation vials and in LDPE Drop-Tainers. The formulations were evaluated for clarity using UV light.
Formulation Compositions Containing 0.5% and 1.0% Olopatadine in 0.17% Native Guar and 1% to 6% Hydroxypropyl-Beta-Cyclodextrin (HPCD).

[3] = Solubility/clarity and freeze-thaw of 1.0% olopatadine in native guar with HPCD (Table 4-1); assay type: physicochemical; settings: 0.17% native guar, approximately 5% or more HPCD, physiologic pH of approximately 7
Description: as §1

- Olopatadine solubility ([2]; HPCD at or above approximately 2%): 0.5%
- Olopatadine solubility ([2]; HPCD at or above approximately 4%): 1%
- concentration of cyclodextrin that can solubilize Olopatadine ([2]; 0.5% Olopatadine together with 0.17% guar): approximately 2%
- concentration of cyclodextrin that can solubilize Olopatadine ([2]; 0.6% Olopatadine together with 0.17% guar): ~4%
- Olopatadine concentration solubilized [3]: 1%
Structure (SMILES): CN(C)CC/C=C1/c2ccccc2COc2ccc(CC(=O)O)cc21 [Olopatadine, (Z)-11-(3-dimethylaminopropylidene)-6,11-dihydro-dibenz-[b,e]oxepin-2-acetic acid]
- olopatadine concentration at which efficacy in reducing late phase allergy symptoms begins to show improvement [1]: greater than 0.5 w/v %
- olopatadine concentration at which statistically significant improvements in reducing late phase allergy symptoms begin ([1]; about 0.7 w/v % and above): at least 0.7 w/v %
